According to ChEMBL document CHEMBL1201862, “PubChem BioAssay data set” (2004):
Activity calls are given as the source filed them.

Assays:
[1] = target: 5-hydroxytryptamine receptor 2A (Mus musculus, UniProt P35363); type: functional, cell-based;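 also: CHO-K1 cells with tagged receptor and beta-arrestin; agonist potency measured as compound-induced activation of the receptor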
Mu-type opioid receptor = Mu-type opioid receptor (Homo sapiens, UniProt P35372); type: functional, cell-based;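 also: U2OS cells with beta-arrestin recruitment to OPRM1 by beta-gal complementation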
Chain of Mu-type opioid receptor (P35372 whole entry): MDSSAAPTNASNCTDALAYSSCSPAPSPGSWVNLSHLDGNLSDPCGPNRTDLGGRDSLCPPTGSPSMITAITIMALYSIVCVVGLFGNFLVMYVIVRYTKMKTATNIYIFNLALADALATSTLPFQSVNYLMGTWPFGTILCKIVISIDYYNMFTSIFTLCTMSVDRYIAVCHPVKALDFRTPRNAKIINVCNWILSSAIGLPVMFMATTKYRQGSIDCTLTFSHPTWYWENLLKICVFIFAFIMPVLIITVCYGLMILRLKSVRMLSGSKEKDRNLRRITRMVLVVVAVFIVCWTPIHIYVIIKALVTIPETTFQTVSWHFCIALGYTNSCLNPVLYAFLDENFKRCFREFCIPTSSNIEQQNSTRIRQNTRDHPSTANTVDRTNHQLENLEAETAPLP

[2] = activation of miR-122 Renilla sensor silencing – cell-based, Huh7 psiCHECK-miR122, Renilla luciferase, cherry-picked, dose response (AID 651956); type: functional;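 also: huh7 hepatoma cells stably carrying a psiCHECK-2 miR-122 sensor plasmid; renilla luciferase signal reporting endogenous miR-122 activity after 48 h compound exposure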
[3] = Luminescence Cell-Based Dose Retest to Confirm Inhibitors of Cancer Stem Cells. [Related pubchem assays (depositor defined):AID2717, AID2721]; type: functional; details: Homo sapiens
INS1 = experiment: INS-1E survival protection against cytokine death – cell-based, luminescence, retest, dose response (AID 449756); type: functional; details: Rattus norvegicus;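 also: cell death triggered by IL-1 beta plus TNF-alpha plus IFN-gamma mixture; protective hits raise ATP signal compared with cytokine alone wells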
[4] = general mammalian cell viability loss – activator set, cherry-pick, cytotoxicity control for miR-122 modulator project, dose response (AID 720690); type: functional, cell-based;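 also: HEK293T human cells scored for general mammalian cytotoxicity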
[5] = viability loss in HEK293T cells – cell-based, cherry-picks, cytotoxicity control for HIV Vif inhibitor project, dose response (AID 652208); type: functional
[6] = viability loss in HEK293T cells – cell-based, CellTiter-Glo luminescence, dry powder, set 6, cytotoxicity control, dose response (AID 651949); type: functional; details: HEK293
[7] = antileishmanial activity on axenic amastigotes – plate reader, cherry pick, dose response (AID 651891); type: functional, cell-based; details: Leishmania donovani
[8] = L6 myocyte viability loss – cell-based, plate reader, cherry-pick, cytotoxicity control, dose response (AID 651896); type: functional
[9] = Inhibition of T. cruzi Tulahuen strain amastigotes in L-6 muscle cells Measured in Cell-Based and Microorganism Combination System Using Plate Reader - 2138-03_Inhibitor_Dose_CherryPick_Activity.; type: functional; details: Rattus norvegicus, L6
[10] = Inhibition of Plasmodium falciparum NF54 Measured in Cell-Based System Using Plate Reader - 2138-11_Inhibitor_Dose_CherryPick_Activity.; type: functional
[11] = intracellular Trypanosoma cruzi inhibitors in host cells – cell-based, plate reader, cherry-pick samples, set 3, dose response (AID 651818); type: functional;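 also: compounds incubated with infected cells for about four days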
[12] = African trypanosome bloodstream form growth inhibition – STIB900 strain, plate reader, cherry pick, dose response (AID 651893); type: functional, cell-based, Trypanosoma brucei rhodesiense; details: Trypanosoma brucei
[13] = OVCAR8 cell viability loss – plate reader, dry powder samples, PAX8 project, dose response (AID 743197); type: functional, cell-based; details: OVCAR-8
[14] = A2780 cell killing – plate reader, dry powder samples, cytotoxicity control, dose response (AID 743046); type: functional, cell-based
[15] = OVCAR-3 cell viability loss – plate reader, dry powder samples, PAX8 inhibitor project, dose response (AID 743044); type: functional, cell-based
[16] = toxicity toward immortalized ovarian surface epithelium – cell-based, plate reader, dry powder samples, cytotoxicity control for PAX8 inhibitor project, dose response (AID 743045); type: functional
Paired box protein Pax-8 = Paired box protein Pax-8 (Homo sapiens, UniProt Q06710); experiment: PAX8 transcriptional activity inhibition in RMG-I – RMG-I cells, luciferase, cherry-pick, dose response (AID 687027); type: functional, cell-based;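 also: luciferase reporter driven by Pax8 target thyroperoxidase promoter measured by SteadyGlo luminescence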
Chain of Paired box protein Pax-8 (Q06710 whole entry): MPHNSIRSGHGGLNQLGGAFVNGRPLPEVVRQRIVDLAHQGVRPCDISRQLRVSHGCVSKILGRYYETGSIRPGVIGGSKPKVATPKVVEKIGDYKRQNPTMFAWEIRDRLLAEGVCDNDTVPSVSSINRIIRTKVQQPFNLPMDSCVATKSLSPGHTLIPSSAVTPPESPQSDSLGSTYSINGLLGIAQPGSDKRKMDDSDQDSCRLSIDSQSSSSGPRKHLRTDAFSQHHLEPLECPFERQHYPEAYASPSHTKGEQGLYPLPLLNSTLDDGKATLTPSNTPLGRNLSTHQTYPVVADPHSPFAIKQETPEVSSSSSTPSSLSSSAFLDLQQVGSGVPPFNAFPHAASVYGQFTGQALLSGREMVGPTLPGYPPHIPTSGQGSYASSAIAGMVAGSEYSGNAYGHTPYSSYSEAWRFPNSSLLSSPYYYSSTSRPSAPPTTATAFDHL

[17] = IGROV1 cell killing – plate reader, dry powder samples, PAX8 inhibitor project, dose response (AID 743043); type: functional, cell-based; details: IGROV-1
[18] = CMV-driven luciferase expression suppression in HEK293 – cell-based, luminescence, dry powder, counter-screen for Pax8 inhibitor project, dose response (AID 743020); type: functional
[19] = general cell-killing toxicity readout – plate reader, dry powder samples, cytotoxicity control for PAX8 inhibitor project, dose response (AID 743021); type: functional, cell-based
[20] = target: NAD-dependent protein deacylase sirtuin-5, mitochondrial (Homo sapiens, UniProt Q9NXA8); experiment: blockers of sirtuin-5 peptide desuccinylation – biochemical, fluorescence imaging, cherry-pick, set 6, dose response (AID 720597)
Chain of NAD-dependent protein deacylase sirtuin-5, mitochondrial (Q9NXA8 whole entry): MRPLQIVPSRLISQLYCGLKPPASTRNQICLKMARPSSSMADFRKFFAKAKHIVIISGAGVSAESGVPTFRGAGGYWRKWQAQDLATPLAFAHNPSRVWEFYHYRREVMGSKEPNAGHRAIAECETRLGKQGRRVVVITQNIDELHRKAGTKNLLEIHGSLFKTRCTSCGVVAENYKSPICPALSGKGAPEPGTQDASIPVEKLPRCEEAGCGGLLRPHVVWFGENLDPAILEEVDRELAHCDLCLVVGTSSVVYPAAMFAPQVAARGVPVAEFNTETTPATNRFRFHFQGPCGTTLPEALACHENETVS

Kallikrein-7 = Kallikrein-7 (Homo sapiens, UniProt P49862); experiment: Fluorescence Intensity-based biochemical primary high throughput dose response assay to identify activators of kallikrein-7 (K7) zymogen.
Chain of Kallikrein-7 (P49862 whole entry): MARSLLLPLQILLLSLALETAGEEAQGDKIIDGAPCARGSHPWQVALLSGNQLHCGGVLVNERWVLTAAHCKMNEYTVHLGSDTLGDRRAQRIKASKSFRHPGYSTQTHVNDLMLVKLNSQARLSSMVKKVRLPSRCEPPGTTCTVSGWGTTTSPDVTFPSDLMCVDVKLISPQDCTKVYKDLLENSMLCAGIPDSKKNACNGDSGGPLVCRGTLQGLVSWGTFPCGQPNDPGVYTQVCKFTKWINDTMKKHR

[21] = inhibitors of non-replicating M. tuberculosis, dose response, luciferase, dry powder (AID 651620); type: functional; details: Mycobacterium tuberculosis
[22] = inhibitors of non-replicating M. tuberculosis, dose response, luciferase, dry powder (AID 651619); type: functional; details: Mycobacterium tuberculosis
[23] = target: Botulinum neurotoxin type F (Clostridium botulinum, UniProt P30996); experiment: High-throughput multiplex microsphere dose response for inhibitors of toxin protease, specifically Botulinum neurotoxin light chain F protease, compounds from Cherry Pick 02.; type: functional; details: read-out: EC50_MICROM
Chain of Botulinum neurotoxin type F (P30996 1-436 limits assumed): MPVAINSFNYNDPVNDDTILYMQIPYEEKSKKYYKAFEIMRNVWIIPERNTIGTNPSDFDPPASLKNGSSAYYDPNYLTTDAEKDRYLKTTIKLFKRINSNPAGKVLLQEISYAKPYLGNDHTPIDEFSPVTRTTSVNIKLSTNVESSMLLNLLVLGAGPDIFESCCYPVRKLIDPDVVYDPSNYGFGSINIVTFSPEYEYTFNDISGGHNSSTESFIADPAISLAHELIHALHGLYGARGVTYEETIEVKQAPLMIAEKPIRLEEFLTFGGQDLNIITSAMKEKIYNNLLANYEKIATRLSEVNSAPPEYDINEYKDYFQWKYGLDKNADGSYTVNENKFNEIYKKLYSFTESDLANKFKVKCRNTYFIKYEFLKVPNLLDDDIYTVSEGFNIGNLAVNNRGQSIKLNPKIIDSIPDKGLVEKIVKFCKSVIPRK

Lethal factor = Lethal factor (Bacillus anthracis, UniProt P15917); experiment: High-throughput multiplex microsphere dose response for inhibitors of toxin protease, specifically Lethal Factor protease, compounds from Cherry Pick 02.; type: functional; details: read-out: EC50_MICROM
Chain of Lethal factor (P15917 whole entry): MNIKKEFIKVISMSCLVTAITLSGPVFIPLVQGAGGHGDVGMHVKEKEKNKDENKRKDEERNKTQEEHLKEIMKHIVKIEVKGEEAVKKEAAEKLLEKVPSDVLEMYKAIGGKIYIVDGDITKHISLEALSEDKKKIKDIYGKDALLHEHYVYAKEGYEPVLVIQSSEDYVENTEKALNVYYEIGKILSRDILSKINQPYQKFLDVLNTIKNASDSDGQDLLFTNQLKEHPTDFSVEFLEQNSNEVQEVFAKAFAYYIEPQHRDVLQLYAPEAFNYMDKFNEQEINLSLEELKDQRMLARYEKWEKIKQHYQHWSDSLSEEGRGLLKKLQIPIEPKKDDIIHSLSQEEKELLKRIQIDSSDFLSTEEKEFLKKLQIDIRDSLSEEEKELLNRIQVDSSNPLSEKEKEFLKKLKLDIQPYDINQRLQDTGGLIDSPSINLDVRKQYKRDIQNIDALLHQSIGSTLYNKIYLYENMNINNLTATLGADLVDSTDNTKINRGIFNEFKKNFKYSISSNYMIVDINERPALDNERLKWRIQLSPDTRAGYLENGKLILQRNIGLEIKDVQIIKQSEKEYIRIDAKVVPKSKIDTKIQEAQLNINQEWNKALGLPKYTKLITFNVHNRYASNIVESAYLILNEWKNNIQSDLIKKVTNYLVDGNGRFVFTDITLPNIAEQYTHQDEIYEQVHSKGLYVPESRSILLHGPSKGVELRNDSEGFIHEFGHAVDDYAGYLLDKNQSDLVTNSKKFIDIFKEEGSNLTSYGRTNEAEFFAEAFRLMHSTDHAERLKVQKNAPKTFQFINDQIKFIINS

Chain of 5-hydroxytryptamine receptor 2A (P35363 whole entry): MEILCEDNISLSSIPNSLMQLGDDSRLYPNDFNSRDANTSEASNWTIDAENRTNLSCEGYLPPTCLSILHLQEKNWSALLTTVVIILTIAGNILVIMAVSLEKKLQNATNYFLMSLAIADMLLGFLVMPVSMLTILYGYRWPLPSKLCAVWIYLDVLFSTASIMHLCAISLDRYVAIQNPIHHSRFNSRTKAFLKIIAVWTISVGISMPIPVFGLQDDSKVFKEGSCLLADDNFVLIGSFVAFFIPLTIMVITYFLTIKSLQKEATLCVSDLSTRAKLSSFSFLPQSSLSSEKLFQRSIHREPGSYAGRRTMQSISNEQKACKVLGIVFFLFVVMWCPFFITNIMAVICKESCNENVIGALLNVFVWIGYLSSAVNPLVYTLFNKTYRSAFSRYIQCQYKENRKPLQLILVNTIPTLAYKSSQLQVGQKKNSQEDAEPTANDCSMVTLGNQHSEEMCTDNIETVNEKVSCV

FC(F)(F)c1cccc(CN2CCN(c3ncccn3)CC2)c1
EC50 [1]: 4.16 µM (active) | EC50 (Mu-type opioid receptor): 92.4 µM (inactive)

COc1ccc(-c2cc(-c3nc4ccccn4c3NCc3ccccc3)ccc2OC)cc1
AC50 [2]: 8.74 µM (active) | AC50 [3]: 5.24 µM (active) | AC50 (INS1): 1.33 µM (active) | AC50 [4]: 3.12 µM (active) | AC50 [5]: 1.69 µM (active)

c1ccc(CSc2nnc(C3CCCC3)o2)cc1
AC50 [6]: > 52 µM (inactive)

COc1ccc(CN(C)C[C@H]2Oc3c(NC(=O)c4ccncc4)cccc3C(=O)N([C@H](C)CO)C[C@@H]2C)cc1
IC50 [7]: > 100 µM (inactive) | IC50 [8]: > 100 µM (inactive) | IC50 [9]: 7.39 µM (inactive) | IC50 [10]: 7.39 µM (inactive) | AC50 [11]: 0.206 µM (active) | IC50 [12]: 20.2 µM (inactive)

C[C@H]1CCCCO[C@H](CN(C)C(=O)Nc2ccc(C(F)(F)F)cc2)[C@@H](C)CN([C@@H](C)CO)C(=O)c2cc(NC(=O)Nc3ccc(F)cc3)ccc2O1
AC50 [13]: 23.7 µM (active) | AC50 [14]: 52.4 µM (active) | AC50 [15]: 11.2 µM (active) | AC50 [16]: 50.8 µM (active) | AC50 (Paired box protein Pax-8): 3.62 µM (active)

C[C@@H]1CN([C@H](C)CO)C(=O)c2cc(NS(=O)(=O)c3ccccc3)ccc2O[C@@H](C)CCCCO[C@@H]1CN(C)Cc1ccc(C(F)(F)F)cc1
AC50 [13]: 39 µM (active) | AC50 [14]: 34.8 µM (active) | AC50 [17]: 35.4 µM (active) | AC50 [15]: 27.4 µM (active) | AC50 [18]: 65.4 µM (active) | AC50 [19]: 49 µM (active) | AC50 (Paired box protein Pax-8): 5.74 µM (active)

CCCNC(=O)N1[C@@H](CO)[C@H](c2ccccc2)C12CN(C(=O)CC1CC1)C2
AC50 [20]: 24.6 µM (active)

COc1ccc2ccccc2c1C=NNC(=O)c1cc(-c2ccc(C)c(C)c2)[nH]n1
EC50 (Kallikrein-7): > 2.57 µM (active)

c1ccc(Cn2cc(CSc3nnc(-c4ccccc4)o3)nn2)cc1
IC90 [21]: 2 µM (active) | IC90 [22]: 2 µM (active)

O=C(COC(=O)c1cncc(Br)c1)NC12CC3CC(CC(C3)C1)C2
EC50 [23]: > 20 µM (inactive) | EC50 (Lethal factor): 11.5 µM (active)
